The values below come from patent US20210187488A1, “A METHOD OF SYNTHESISING A PT(II) COMPLEX; A PT(II) COMPLEX; USE OF SUCH A COMPLEX AS A PHOTOACTIVATABLE CATALYST IN A HYDROSILYLATION REACTION” (JOHNSON MATTHEY PUBLIC LIMITED COMPANY, priority 2017, published 2021).

For data set [1] the following is noted: ECHA (European Chemicals Agency) website; cited from earlier work.
Data set [2] is described as follows: Catalytic activity of comparative products in gelling of a siloxane polymer. How it is done: The brown solution gave an orange oil which was tested for catalytic activity in gelling of a siloxane polymer.
A 16.13 wt % aqueous solution of Pt(IV) nitrate (2.624 g, 2.17 mmol) was added to deionised water (50 mL) and a mixture of salicylaldehyde (2.45 mL, 2.8 g, 22.8 mmol) and NaHCO3 (0.765 g, 9.12 mmol) in EtOH (15 mL) was then added. The reaction mixture gave off gas and produced an orange precipitate. Stirring was continued at room temperature for 2 hours. The reaction mixture was then filtered to give an orange precipitate and an orange solution. The precipitate was washed with water and diethylether. […] The product was tested for catalytic activity but none was found. […] The major product appeared to be Pt^IV(HCO3)4.

Data set [3] can be described thus: Qualitative solubility observations. Type of data set: physicochemical. How it is done:
Stirring was continued at room temperature for 2 hours. […] The precipitate was washed with water and diethylether.
An excess of salicylaldehyde (2 mL, 2.28 g, 18.62 mmol) in EtOH (20 mL) was added and the reaction mixture was heated at 73° C. overnight.
Five different samples were studied: • 1. Vinyl-terminated polydimethylsiloxane 100 cSt • 2.

Data set [4] can be described thus: Catalytic activity: time until gelling of siloxane composition after 60 s UV irradiation or in the dark. As to conditions: for Gelling time: 60 s UV. The procedure:
The product of Example 3 was tested for catalytic activity.
5 mg of the product was dissolved in 1 mL dichloromethane to provide a solution (‘Solution A’).
The following ingredients were added to a UV-grade plastic cuvette: • vinyl terminated polydimethyl siloxane 100 cSt DMS V21 (2g); • (45-55% methylhydrosiloxane)dimethylsiloxane copolymer 10-15 cSt HMS-501 (0.108 mL); • Solution A (25 μL).
The contents of the cuvette were stirred briefly with a spatula to ensure thorough mixing and a 10 mm magnetic flea was added, before sealing with parafilm.
The cuvette was placed in a UV-lamp box. The positioning of samples in the box was kept the same throughout testing (154 mm from ground to top of cuvette; 114 mm between end of housing and front of cuvette).
A 300 W ozone-free Xenon lamp was used (visible to 300 nm). A water-cooled filter removes some of the visible spectrum.
The stirrer speed was set to the 12 o'clock position and the lamp was switched on for 60 seconds only. The time taken from the switching on of the lamp to the stirrer no longer being able to complete a turn was noted as a measure of activity.
Results are provided in the Table below. ‘Irradiated’ indicates samples exposed to the 60 s UV radiation. ‘Dark’ indicates samples left in darkness without any irradiation.
(§1) All other aspects of the test were the same as Example 16. The results reflect gelling time after the 60 s UV irradiation.
The testing was done as in Example 16, except that in the initial step the following four solutions were prepared:
Different amounts of the respective solutions, as shown in the Tables below, were added to the cuvette but all other aspects of the test were the same as Example 16.
as §1

A short description of data set [5]: Solubility in various solvents, Pt content by ICP-AES. Type of data set: physicochemical. The following applies: 10 mg in 1 mL, room temperature, 3 h, filtered. The procedure:
The solubility of the product of Example 3 was tested in various solvents.
In each case, 10 mg of the complex was stirred in 1 mL of each solvent at room temperature for three hours. The solvent was then filtered. One hundred fold dilutions of the samples into methoxypropanol were then carried out and Pt content was determined by ICP-AES using a Spectro Ciros Vision ICP-OES. Yttrium was employed as an internal standard at a concentration of 5 ppm.

A short description of data set [6]: Stability in dichloromethane during crystal growth. In kind it is physicochemical. As to conditions: dichloromethane (DCM/hexane crystal growth, one week). The source says: The following different methods were attempted in order to provide suitable crystals for testing. • 1. Growth in acetone/water medium. […] Growth in DCM/hexane. This formed two distinct layers with slow mixing occurring at the interface. […] Growth in chloroform/hexane. This formed two distinct layers with slow mixing occurring at the interface. Slightly larger crystals were formed, but still too small. It took longer for the product to turn brown. • 4. Growth in chloroform: The product was dissolved in chloroform with heating, and immediately filtered before being stored in the freezer. Needle like crystals were formed • 5. Growth in chloroform/hexane in freezer. Needle like crystals were formed

The nature of data set [7]: Thermogravimetric analysis (thermal stability). In kind it is physicochemical. The following applies: TGA. The source says: (which is the boiling point for salicylaldehyde). Above this temperature the ligand is lost, leaving behind the platinum metal.
Setting [8] is: 25 μL of toluene solution, 1.77 mM.
[9] abbreviates: 50 μL of toluene solution, 1.77 mM.
[10] abbreviates: 75 μL of toluene solution, 1.77 mM.
[11] abbreviates: 200 μL of toluene solution, 1.77 mM.
Setting [12] is: 360 μL of toluene solution, 1.77 mM.

As to `CC1=[C-]CC=C1.[CH3-].[CH3-].[CH3-].[Pt+4]` [(MeCp)PtMe3], in data set [1], the Hazard classification entry is “fatal if swallowed, fatal in contact with skin, very toxic to aquatic life, causes serious eye irritation, may cause an allergic skin reaction, causes skin irritation and may cause respiratory irritation”.

As to `O=C([O-])O.O=C([O-])O.O=C([O-])O.O=C([O-])O.[Pt+4]` [Comparative Example 6, Pt^IV(HCO3)4], the Catalytic activity entry in data set [2] is “none”.

For Pt(sal)2 [Example 9], the Solubility result in data set [3] (MeOH (washing)) is reported as “only very slightly soluble”.

For the compound `CC(=O)/C=C(/C)O.CC(=O)/C=C(/C)O.[Pt]` [Solution C, Pt(acac)2], the Gelling time came to 1234 s in data set [4] (25 μL of DCM solution, 14.4 mM); 719 s in data set [4] (50 μL of DCM solution, 14.4 mM); 506 s in data set [4] (75 μL of DCM solution, 14.4 mM); 535 s in data set [4] (100 μL of DCM solution, 14.4 mM).

Turning to Pt(sal)2 [Solution D], the Gelling time stood at 1263 s in data set [4] (setting [8]); 627 s in data set [4] (setting [9]); 415 s in data set [4] (setting [10]); 231 s in data set [4] (setting [11]); 126 s in data set [4] (setting [12]).

Pt(sal)2 [Example 3]: the Pt concentration in data set [5] (Acetone:MeCN (1:1)) was 698 mg/L; in data set [5] (Acetone), 646 mg/L; in data set [5] (Chloroform) it was 3260 mg/L; in data set [5] (EtOH), 103 mg/L; in data set [5] (IPA), 43.4 mg/L; in data set [5] (MIBK), 369 mg/L. In addition, the Pt concentration was 1220 mg/L in data set [5] (MeCN:DMSO (80:20)); 588 mg/L in data set [5] (MeCN); 346 mg/L in data set [5] (Toluene); 167 mg/L in data set [5] (Water:MeCN (1:1)); 42.1 mg/L in data set [5] (Water). For the same compound, the Time until gelling is 13,500 s in data set [4] (dark, no irradiation, 25 μL of 5 mg in 1 mL dichloromethane) and 165 s in data set [4] (irradiated (60 s UV), 25 μL of 5 mg in 1 mL dichloromethane). Also, the Stability in solvent result in data set [6] is given as “not completely stable”. Besides, in data set [7], the “Thermal stability, stable up to” value was “up to 200 °C”.

Regarding Pt(sal)2 [Example 7], the Time until gelling in data set [4] (after 60 s UV irradiation, 11 mg in 1 mL dichloromethane) was 208 s.

With `CC(=O)/C=C(/C)O.CC(=O)/C=C(/C)O.[Pt]` [Solution E, Pt(acac)2], the Gelling time in data set [4] (setting [8]) was 3544 s; in data set [4] (setting [9]) it was 1350 s; in data set [4] (setting [10]), 938 s; in data set [4] (100 μL of toluene solution, 1.77 mM) it was 793 s; in data set [4] (setting [11]), 551 s; in data set [4] (setting [12]), 486 s.

Consider Pt(sal)2 [Example 1], for which the “Solubility (note on sample)” value in data set [3] (1 mg/mL in acetone) was “saturated solution, prone to some precipitation”; in data set [3] (1 mg/mL in vinyl-terminated polydimethylsiloxane) it was “poor solubility, solution very cloudy and prone to precipitation”.
